Experimental data reported in patent US7235548B2, “Compounds and their use as positive AMPA receptor modulators” (NeuroSearch A/S, priority 1998, dated 2007).
Values belong to the compound of their own block, whether it stands above or below them.

Legend:
[1] = target: ionotropic quisqualate (AMPA) receptors; experiment: In vitro inhibition of 3H-AMPA binding; settings: 5 nM 3H-AMPA, rat cerebral cortex membranes, 30 min at 2° C.; read-out: IC50 (concentration of the test substance which inhibits the specific binding of 3H-AMPA by 50%)
Source text: L-glutamate (GLU) is the major excitatory neurotransmitter in the mammalian central nervous system. From electrophysiological- and binding studies, there appear to be at least three subtypes of GLU receptors, tentatively named N-methyl-D-aspartate (NMDA)-, quisqualate- and kainate receptors. GLU receptor subtypes sensitive to quisqualate and kainate as a group are often referred to as non-NMDA receptors. Receptor binding studies using the labelled agonists ^3H-AMPA (α-amino-3-hydroxy-5-methyl-4-isoxazolepropionic acid) (for quisqualate receptors) and ^3H-kainate (for kainate receptors) have shown different antagonist selectivities and regional distribution. AMPA has been known for several years to be a potent and selective agonist at the traditionally named quisqualate receptors. Activation of quisqualate receptors by AMPA is associated with Na^+ influx and K^+ efflux leading to depolarization.
The non-NMDA receptors have recently been reclassified to include the quisqualate activated metabotropic receptor type, linked to the inositol triphosphate and diacylglycerate metabolism. […] Selective activation of the metabotropic type has been claimed for trans-ACPD. Recently, the potent and competitive non-NMDA receptor antagonists CNQX and NBQX have been described, and CNQX have been reported not to block the effect of quisqualate at the metabotropic receptor subtype. ^3H-AMPA is a selective radioligand for labelling the ionotropic quisqualate (AMPA) receptors.
Preparations are performed at 0–4° C. unless otherwise indicated. Cerebral cortex from male Wistar rats (150–200 g) is homogenized for 5–10 sec in 20 ml Tris-HCl (30 mM, pH 7.4) using an Ultra-Turrax homogenizer. The suspension is centrifuged at 27,000×g for 15 min and the pellet is washed three times with buffer (centrifuged at 27,000×g for 10 min). The washed pellet is homogenized in 20 ml of buffer and incubated on a water bath (37° C.) for 30 min to remove endogenous glutamate and then centrifuged for 10 min at 27,000×g. The pellet is then homogenized in buffer and centrifuged at for 10 min at 27,000×g. The final pellet is resuspended in 30 ml buffer and the preparation is frozen and stored at −20° C.
The membrane preparation is thawed and centrifuged at 2° C. for 10 min at 27,000×g for 10 min. The pellet is washed twice with 20 ml 30 mM Tris-HCl containing 2.5 mM CaCl2, pH 7.4 using an Ultra-Turrax homogenizer and centrifuged for 10 min at 27,000×g. The final pellet is resuspended in 30 mM Tris-HCl containing 2.5 mM CaCl2 and 100 mM KSCN, pH 7.4 (100 ml per g of original tissue) and used for binding assays. Aliquots of 0.5 (0.2) ml are added to 25 (20) μl of test solution and 25(20) μl of ^3H-AMPA (5 nM, final concentration), mixed and incubated for 30 min at 2° C. Non-specific binding is determined using L-glutamate (0.6 mM, final concentration). After incubation the 550 μl samples are added 5 ml of ice-cold buffer and poured directly onto Whatman GF/C glass fibre filters under suction and immediately washed with 5 ml of ice-cold buffer. The 240 μl samples are filtered over glass fibre filter using a Skatron cell harvrester. The filters are washed with 3 ml ice-cold buffer. The amount of radioactivity on the filters is determined by conventional liquid scintillation counting. Specific binding is total binding minus non-specific binding.
The test value will be given as the IC50 (the concentration (μM) of the test substance which inhibits the specific binding of ^3H-AMPA by 50%)

[2] = tested on: AMPA receptor; experiment: Voltage clamp (whole cell patch clamp), current induced by AMPA in cultured mouse neocortical neurons; assay type: cell-based; settings: for reversibility of the potentiation: after wash out of the compound; for potentiation of the current induced by application of 30 μM AMPA: holding voltage −60 mV
Procedure: Experiments were performed in voltage clamp using conventional whole cell patch clamp methods (Hamill et al., 1981), essentially as described previously (Mathiesen et al., 1998). The following salt solutions were used (mM): NaCl (140), KCl (4), CaCl2 (2), MgCl2 (1), Sucrose (30), Tetrodotoxin (0.0003), Bicuculline Methiodide (0.005) and HEPES (10, pH 7.4). Intracellular solution (mM): CsCl (120), CsF (20), MgCl2 (2), EGTA (10), HEPES (10, pH=7.2).
Mouse neocortical neurons were cultured essentially as described by Drejer et al. (1987). Briefly, the forebrains from embryonic (E17) NMRI mice were removed under sterile conditions. The tissue was chopped in 0.4 mm cubes and the triturated with trypsin (12.5 μg/ml) and DNAse (2.5 μg/ml), 15 min, 37° C. The cells were suspended at a concentration of 1×10^6 cells/ml in a slightly modified DMEM which contained horse serum (10% (v/v)), penicillin (333 U/ml), paraaminobenzoic acid (1 mg/ml), L-glutamine (0.5 mM), insulin (0.08 U/ml) and KCl (23.8 mM). The cell suspension was subsequently inoculated into poly-L-lysine coated 35 mm Petri dishes (2 ml/dish). Glass coverslips (3.5 mm) were placed in the dishes before coating. After 24 hr in culture, the medium was replaced by freshly made medium containing 1% N2 supplement instead of serum.
The cells were kept in culture for 7–14 days at 37° C. (5% CO2/95% O2) before experiments were carried out.
Electronics, programs and data acquisition: The amplifier used was the EPC-9 (HEKA-electronics, Lambrect, Germany) run by a Power Macintosh G3 computer via an ITC-16 interface. Experimental conditions were set with the Pulse-software accompanying the amplifier. Data were low pass filtered and sampled directly to hard-disk at a rate of 3 times the cut-off frequency.
Pipettes and electrodes: Pipettes were pulled from borosilicate glass (Modulohm, Copenhagen, Denmark) using a horizontal electrode puller (Zeitz-Instrumente, Augsburg, Germany). The pipette resistances were 1.7–2.4 MW in the salt solutions used in these experiments. The pipette electrode was a chloridized silver wire, and the reference was a silverchloride pellet electrode (In Vivo Metric, Healdsburg, USA) fixed to the experimental chamber. The electrodes were zeroed with the open pipette in the bath just prior to sealing.
Experimental procedure: Coverslips were transferred to a […] experimental chamber mounted on the stage of an inverted microscope (IMT-2, Olympus) supplied with Nomarski optics. The neurons were continuously superfused with extracellular saline at a rate of 2.5 ml/min. After giga-seal formation (1–5 GW, success-rate≈90%) the whole cell configuration was attained by suction.
The cells were held at a holding voltage of −60 mV and at the start of each experiment the current was continuously measured for at least 30 sec to ensure a stable leak current. AMPA-containing solutions were delivered to the chamber through a custom-made gravity-driven flowpipe, the tip of which was placed approximately 50 μm from the cell. Application was triggered when the tubing connected to the flow pipe was compressed by a valve controlled by the Pulse-software. AMPA (30 μM) was applied for 1 sec every 45 sec. After obtainment of responses of a repeatable amplitude the compound to be tested was included in both the chamber and in the AMPA-containing solution. The compound was present until responses of a new repeatable was obtained.
The sample interval in all experiments was 310 μsec.
All experiments were performed at room temperature (20–25° C.).

[3] = tested on: AMPA receptors; experiment: AMPA evoked single neuron spike activity in rat hippocampus (iontophoretic application of AMPA), in vivo; settings: 10 mg kg^−1 i.v.
Source text: Evaluation of the in vivo effects of positive AMPA modulators (PAMs) on the AMPA evoked spike activity in rat hippocampus. Hippocampal single neuron spike activity is strongly influenced by excitatory input, and iontophoretic application of AMPA induces spike activity in vivo in a dose-dependent manner ([…] et al. 1998). […] PAMs potentate AMPA receptor activation in vitro, and if this mechanism also operates in vivo, the i.v. injection of an PAM should enhance AMPA evoked spike activity. Thus, the aim of this study was to test the in vivo effect of a group of in vitro active PAMs. This have been done by studying their ability to enhances AMPA evoked spike activity after i.v. administration. Experiments were performed on male Wistar rats (M & B, Denmark) weighing 280-380 g, housed in two per cage with free access to food and water. […] Additional anaesthetic was given i.v. if the rat responded to a pinch of the back foot. The trachea was cannulated and the rats were placed in a stereotaxic frame and ventilated by a rodent ventilator (Ugo Basile, Comerio-Varese, Italy). Core body temperature was maintained at 37.5° C. by a DC heating pad. The left and dorsal part of the parietal bone was removed by craniotomy and the dura was withdrawn exposing the pia mater and underlying brain, covered with 0.9% NaCl. AMPA (Sigma, USA) was dissolved at 10 mM in 0.2 M NaCl. NMDA (Sigma, USA) was dissolved at 100 mM in 100 mM NaCl. Both solutions were adjusted to pH 7.5-8.0 with NaOH. COMPOUND 61 was dissolved in 200 mM CH3SO3^- Na^+ at a contration of 10 mM for iontophoretic application ([…]) and in isotonic glucose (278 mM) for i.v. administration. Cyclothiazide, COMPOUND 63, COMPOUND 56, COMPOUND 115 and COMPOUND 114 were all dissolved at in 5% chremophore solution at a concentration of 5 mg ml^-1. Evoked neuronal spike activity was analyzed on-line by a computer, saving single spikes and time of event. Neuronal spike activity (number of action potentials s^-1) was monitored on a pulse rate histogram together with indicators for AMPA, COMPOUND 61 and vehicle application. Extracellular recordings of single hippocampal neuron spikes were made with five-barrel glass microelectrodes (5B120F-6, World Precision Instruments Inc., Sarasota, Fla., USA) with a tip diameter of 10-12 μm. The individual barrels were filled with 5 M NaCl (recording), 400 mM NaCl (current balancing), 10 mM COMPOUND 61 in 200 mM CH3SO3^- Na^+ (pH 4.7), 200 mM CH3SO3^- Na^+ (pH 4.7, Vehicle), and the last barrel was filled with the AMPA. Experiments were performed on hippocampal neurons (A=5.5-6.5 mm, L=1.5-2.0 mm, H=2.0-3.0 mm, according to Paxinos & Watson, 1986). Neuronal spike activity was evoked by iontophoretic application of AMPA for periods of 10 to 15 s with 1.5 min intervals. Single neuron spike activity was amplified 5000 times with a bandwidth of 0.3 and 3 kHz (CyberAmp 320 with a Al 402 x50 smartprobe, Axon Instruments, California, USA). On-line and off-line analyses were performed by the Spike2 program with a 1401 plus interface (Cambridge Electronic Design Limited, England). The computer program also recorded mean arterial blood pressure and monitored and controlled iontophoretic application. AMPA was ejected into hippocampus in regular cycles of 100-105 s. […] Recording of neuronal spike activity was continued for at least 45 min after intravenous injection. The PAM reactivity was tested by microiontophoretic application of COMPOUND 61 (20 nA, FIG.).

IC50 [1]: 3.4 µM
Compound: O=S1(=O)NC(C2CCCCC2)Nc2ccc(S(=O)(=O)N3CC=CCC3)cc21 (centres unmarked) [Compound 58, 3-Cyclohexyl-7-(1′,2′,3′,6′-tetrahydropiperidino)sulfonyl-1,2,3,4-tetrahydro-1,2,4-benzothiadiazine-1,1-dioxide]

IC50 [1]: 6 µM
Compound: CS(=O)(=O)N1CCN(S(=O)(=O)c2ccc3c(c2)S(=O)(=O)NC(C2CCCCC2)N3)CC1 (centres unmarked) [Compound 62, 3-Cyclohexyl-7-(4′-methylsulfonylpiperazino)sulfonyl-1,2,3,4-tetrahydro-1,2,4-benzothiadiazine-1,1-dioxide]

IC50 [1]: 13 µM
melting point: 231 to 233 °C
Compound: Cc1cc2c(cc1S(N)(=O)=O)S(=O)(=O)NC(C1CCCCC1)N2 (centres unmarked) [Compound 113, 3-Cyclohexyl-6-methyl-7-sulfamoyl-1,2,3,4-tetrahydro-1,2,4-benzothiadiazine-1,1-dioxide]

More lines, now with the values behind:

Compound: CCN(CC)S(=O)(=O)c1ccc2c(c1)S(=O)(=O)NC(C1CCCCC1)N2 (centres unmarked) [Compound 48, 3-Cyclohexyl-7-(N,N-diethylamino)sulfonyl-1,2,3,4-tetrahydro-1,2,4-benzothiadiazine-1,1-dioxide]
IC50 [1]: 4.4 µM

Compound: O=S1(=O)NC(C2CCCCC2)Nc2ccc(S(=O)(=O)N3CCCC3)cc21 (centres unmarked) [Compound 49, 3-Cyclohexyl-7-pyrrolidinosulfonyl-1,2,3,4-tetrahydro-1,2,4-benzothiadiazine-1,1-dioxide]
IC50 [1]: 17 µM

Compound: O=S1(=O)NC(C2CCCCC2)Nc2ccc(S(=O)(=O)N3CCCCC3)cc21 (centres unmarked) [Compound 56, 3-Cyclohexyl-7-piperidinosulfonyl-1,2,3,4-tetrahydro-1,2,4-benzothiadiazine-1,1-dioxide]
reversibility of the potentiation [2]: reversible
persistence of the effect after wash out ([2]; compound 3 μM): persits for several minutes after wash out
potentiation of the current induced by application of 30 μM AMPA ([2]; compound 3 μM): potentiated
onset of the enhancement after i.v. administration [3]: approximately 10 min
AMPA evoked spike activity ([3]; rat hippocampus): enhancement

Compound: O=S1(=O)NC(C2CC3C=CC2C3)Nc2ccc(S(=O)(=O)N3CCCCC3)cc21 (centres unmarked) [Compound 57, 3-Bicyclo[2.2.1]hept-5′-en-2′-yl-7-piperidinosulfonyl-1,2,3,4-tetrahydro-1,2,4-benzothiadiazine-1,1-dioxide]
IC50 [1]: 26 µM

Compound: Cc1cc2c(cc1-c1ccccn1)S(=O)(=O)NC(C1CCCCC1)N2 (centres unmarked) [Compound 111, 3-Cyclohexyl-6-methyl-7-(2′-pyridyl)-1,2,3,4-tetrahydro-1,2,4-benzothiadiazine-1,1-dioxide]
reversibility of the potentiation [2]: reversible
potentiation of the current induced by application of 30 μM AMPA ([2]; compound 10 μM): potentiated
